Data as given in the NIST ThermoML archive (doi:10.1016/j.jct.2016.07.017).
± gives the expanded uncertainty stated by the source.

Assay: activity coefficient (dimensionless); of the first substance listed, at infinite dilution; xn = mol fraction of the nth substance listed
Conditions: 101.33 kPa, Liquid, Chromatography, x1 = 0

SMILES	activity coefficient (318.15 K)	activity coefficient (328.15 K)	activity coefficient (338.15 K)	activity coefficient (348.15 K)	activity coefficient (358.15 K)
Cc1ccccc1C [1,2-dimethylbenzene] + CC[N+](C)(CC)CCOC.O=S(=O)([N-]S(=O)(=O)C(F)(F)F)C(F)(F)F	1.93 ± 0.17	1.94 ± 0.17	1.95 ± 0.17	1.96 ± 0.17	1.97 ± 0.17
Cc1cccc(C)c1 [1,3-dimethylbenzene] + CC[N+](C)(CC)CCOC.O=S(=O)([N-]S(=O)(=O)C(F)(F)F)C(F)(F)F	2.12 ± 0.18	2.14 ± 0.18	2.14 ± 0.18	2.17 ± 0.19	2.18 ± 0.19
Cc1ccc(C)cc1 [1,4-dimethylbenzene] + CC[N+](C)(CC)CCOC.O=S(=O)([N-]S(=O)(=O)C(F)(F)F)C(F)(F)F	2.12 ± 0.18	2.15 ± 0.19	2.15 ± 0.19	2.17 ± 0.19	2.18 ± 0.19
C1COCCO1 [1,4-dioxane] + CC[N+](C)(CC)CCOC.O=S(=O)([N-]S(=O)(=O)C(F)(F)F)C(F)(F)F	0.66 ± 0.057	0.679 ± 0.058	0.704 ± 0.06	0.723 ± 0.061	0.734 ± 0.062
C=CCCCCCCCC [1-decene] + CC[N+](C)(CC)CCOC.O=S(=O)([N-]S(=O)(=O)C(F)(F)F)C(F)(F)F	40.4 ± 3.5	37.4 ± 3.2	34.4 ± 3	32.2 ± 2.8	29.8 ± 2.6
C=CCCCCC [1-heptene] + CC[N+](C)(CC)CCOC.O=S(=O)([N-]S(=O)(=O)C(F)(F)F)C(F)(F)F	13.3 ± 1.2	12.6 ± 1.1	11.9 ± 1	11.4 ± 1	10.9 ± 0.9
C#CCCCCC [1-heptyne] + CC[N+](C)(CC)CCOC.O=S(=O)([N-]S(=O)(=O)C(F)(F)F)C(F)(F)F	4.47 ± 0.39	4.43 ± 0.38	4.39 ± 0.38	4.35 ± 0.38	4.29 ± 0.37
C#CCCCC [1-hexyne] + CC[N+](C)(CC)CCOC.O=S(=O)([N-]S(=O)(=O)C(F)(F)F)C(F)(F)F	3.11 ± 0.27	3.11 ± 0.27	3.1 ± 0.27	3.1 ± 0.27	3.08 ± 0.27
CCC[N+](=O)[O-] [1-nitropropane] + CC[N+](C)(CC)CCOC.O=S(=O)([N-]S(=O)(=O)C(F)(F)F)C(F)(F)F	0.78 ± 0.066	0.778 ± 0.065	0.775 ± 0.065	0.772 ± 0.065	0.77 ± 0.065
C#CCCCCCC [1-octyne] + CC[N+](C)(CC)CCOC.O=S(=O)([N-]S(=O)(=O)C(F)(F)F)C(F)(F)F	6.47 ± 0.56	6.36 ± 0.55	6.21 ± 0.54	6.11 ± 0.53	5.97 ± 0.52
C#CCCC [1-pentyne] + CC[N+](C)(CC)CCOC.O=S(=O)([N-]S(=O)(=O)C(F)(F)F)C(F)(F)F	2.15 ± 0.19	2.17 ± 0.19	2.18 ± 0.19	2.19 ± 0.19	2.21 ± 0.19
CC(C)CC(C)(C)C [2,2,4-trimethylpentane] + CC[N+](C)(CC)CCOC.O=S(=O)([N-]S(=O)(=O)C(F)(F)F)C(F)(F)F	25.7 ± 2.2	23.8 ± 2.1	21.7 ± 1.9	21 ± 1.8	20 ± 1.7
CCC(C)(C)C [2,2-dimethylbutane] + CC[N+](C)(CC)CCOC.O=S(=O)([N-]S(=O)(=O)C(F)(F)F)C(F)(F)F	15.1 ± 1.3	14 ± 1.2	13.3 ± 1.2	12.5 ± 1.1	11.9 ± 1
CCOC(C)(C)C [2-ethoxy-2-methylpropane] + CC[N+](C)(CC)CCOC.O=S(=O)([N-]S(=O)(=O)C(F)(F)F)C(F)(F)F	6.09 ± 0.53	5.94 ± 0.51	5.86 ± 0.51	5.71 ± 0.49	5.59 ± 0.48
CCCCC(C)=O [2-hexanone] + CC[N+](C)(CC)CCOC.O=S(=O)([N-]S(=O)(=O)C(F)(F)F)C(F)(F)F	1.14 ± 0.09	1.15 ± 0.1	1.16 ± 0.1	1.18 ± 0.1	1.19 ± 0.1
CCC(C)(C)OC [2-methoxy-2-methylbutane] + CC[N+](C)(CC)CCOC.O=S(=O)([N-]S(=O)(=O)C(F)(F)F)C(F)(F)F	3.87 ± 0.33	3.86 ± 0.33	3.83 ± 0.33	3.8 ± 0.33	3.76 ± 0.32
COC(C)(C)C [2-methoxy-2-methylpropane] + CC[N+](C)(CC)CCOC.O=S(=O)([N-]S(=O)(=O)C(F)(F)F)C(F)(F)F	2.62 ± 0.23	2.63 ± 0.23	2.65 ± 0.23	2.67 ± 0.23	2.67 ± 0.23
CCCC(=O)CC [3-hexanone] + CC[N+](C)(CC)CCOC.O=S(=O)([N-]S(=O)(=O)C(F)(F)F)C(F)(F)F	1.21 ± 0.1	1.22 ± 0.1	1.23 ± 0.1	1.24 ± 0.1	1.25 ± 0.1

SMILES	activity coefficient (318.15 K)	activity coefficient (328.15 K)	activity coefficient (338.15 K)	activity coefficient (348.15 K)	activity coefficient (358.15 K)
CCC(C)CC [3-methylpentane] + CC[N+](C)(CC)CCOC.O=S(=O)([N-]S(=O)(=O)C(F)(F)F)C(F)(F)F	16.1 ± 1.4	14.9 ± 1.3	14 ± 1.2	13.1 ± 1.1	12.5 ± 1.1
CC(C)=O [acetone] + CC[N+](C)(CC)CCOC.O=S(=O)([N-]S(=O)(=O)C(F)(F)F)C(F)(F)F	0.484 ± 0.045	0.491 ± 0.046	0.499 ± 0.046	0.509 ± 0.047	0.518 ± 0.047
CC#N [acetonitrile] + CC[N+](C)(CC)CCOC.O=S(=O)([N-]S(=O)(=O)C(F)(F)F)C(F)(F)F	0.488 ± 0.045	0.488 ± 0.045	0.488 ± 0.045	0.49 ± 0.045	0.49 ± 0.045
c1ccccc1 [benzene] + CC[N+](C)(CC)CCOC.O=S(=O)([N-]S(=O)(=O)C(F)(F)F)C(F)(F)F	1.03 ± 0.08	1.04 ± 0.09	1.05 ± 0.09	1.07 ± 0.09	1.07 ± 0.09
CCCCO [butan-1-ol] + CC[N+](C)(CC)CCOC.O=S(=O)([N-]S(=O)(=O)C(F)(F)F)C(F)(F)F	2.96 ± 0.26	2.63 ± 0.23	2.39 ± 0.21	2.18 ± 0.19	2 ± 0.17
C1CCCCCC1 [cycloheptane] + CC[N+](C)(CC)CCOC.O=S(=O)([N-]S(=O)(=O)C(F)(F)F)C(F)(F)F	14.9 ± 1.3	13.7 ± 1.2	12.7 ± 1.1	11.8 ± 1	11 ± 1
C1CCCCC1 [cyclohexane] + CC[N+](C)(CC)CCOC.O=S(=O)([N-]S(=O)(=O)C(F)(F)F)C(F)(F)F	10.8 ± 0.9	10 ± 0.9	9.39 ± 0.81	8.74 ± 0.75	8.3 ± 0.72
C1=CCCCC1 [cyclohexene] + CC[N+](C)(CC)CCOC.O=S(=O)([N-]S(=O)(=O)C(F)(F)F)C(F)(F)F	5.83 ± 0.5	5.56 ± 0.48	5.33 ± 0.46	5.16 ± 0.45	4.93 ± 0.43
C1CCCCCCC1 [cyclooctane] + CC[N+](C)(CC)CCOC.O=S(=O)([N-]S(=O)(=O)C(F)(F)F)C(F)(F)F	20.4 ± 1.8	18.6 ± 1.6	17 ± 1.5	15.7 ± 1.4	14.5 ± 1.3
C1CCCC1 [cyclopentane] + CC[N+](C)(CC)CCOC.O=S(=O)([N-]S(=O)(=O)C(F)(F)F)C(F)(F)F	7.28 ± 0.63	6.85 ± 0.59	6.47 ± 0.56	6.12 ± 0.53	5.79 ± 0.5
CCCCCCCCCC [decane] + CC[N+](C)(CC)CCOC.O=S(=O)([N-]S(=O)(=O)C(F)(F)F)C(F)(F)F	82 ± 7.1	72.7 ± 6.3	65.4 ± 5.7	58.1 ± 5	52.6 ± 4.6
CCOCC [diethyl ether] + CC[N+](C)(CC)CCOC.O=S(=O)([N-]S(=O)(=O)C(F)(F)F)C(F)(F)F	2.62 ± 0.23	2.6 ± 0.22	2.6 ± 0.22	2.59 ± 0.22	2.57 ± 0.22
CC(C)OC(C)C [diisopropyl ether] + CC[N+](C)(CC)CCOC.O=S(=O)([N-]S(=O)(=O)C(F)(F)F)C(F)(F)F	6.4 ± 0.55	6.28 ± 0.54	6.16 ± 0.53	6.03 ± 0.52	5.88 ± 0.51
CCCOCCC [dipropyl ether] + CC[N+](C)(CC)CCOC.O=S(=O)([N-]S(=O)(=O)C(F)(F)F)C(F)(F)F	6.84 ± 0.59	6.58 ± 0.57	6.41 ± 0.55	6.25 ± 0.54	6.07 ± 0.52
CCO [ethanol] + CC[N+](C)(CC)CCOC.O=S(=O)([N-]S(=O)(=O)C(F)(F)F)C(F)(F)F	1.77 ± 0.15	1.62 ± 0.14	1.5 ± 0.13	1.38 ± 0.12	1.28 ± 0.11
CCc1ccccc1 [ethylbenzene] + CC[N+](C)(CC)CCOC.O=S(=O)([N-]S(=O)(=O)C(F)(F)F)C(F)(F)F	2.24 ± 0.19	2.25 ± 0.19	2.26 ± 0.19	2.28 ± 0.2	2.29 ± 0.2
CCCCCCC [heptane] + CC[N+](C)(CC)CCOC.O=S(=O)([N-]S(=O)(=O)C(F)(F)F)C(F)(F)F	26.4 ± 2.3	24.4 ± 2.1	22.3 ± 1.9	21 ± 1.8	19.3 ± 1.7
